Measurements from ChEMBL document CHEMBL3217621, “Diaryl ether derivatives as anticancer agents a review” (Medchemcomm, 2012).
pIC50: −log10 of the molar value. Each block holds one molecule with its values, some of them ahead of it.

Tests used:
[1] = Cytotoxicity against human MOLT3 cells; format: functional, cell-based; settings: MOLT-3
HL-60 = assay: Cytotoxicity against human HL60 cells; format: functional, cell-based
[2] = AUC in cynomolgus monkey at 3 mg/kg, po; format: ADME, organism-based, Macaca fascicularis; set-up: dose 3 mg/kg, route oral; settings: plasma
Interstitial collagenase = target: T1, Interstitial collagenase (Homo sapiens, UniProt P03956); assay: Inhibition of MMP-1 (unknown origin)
T1 sequence (P03956 whole entry): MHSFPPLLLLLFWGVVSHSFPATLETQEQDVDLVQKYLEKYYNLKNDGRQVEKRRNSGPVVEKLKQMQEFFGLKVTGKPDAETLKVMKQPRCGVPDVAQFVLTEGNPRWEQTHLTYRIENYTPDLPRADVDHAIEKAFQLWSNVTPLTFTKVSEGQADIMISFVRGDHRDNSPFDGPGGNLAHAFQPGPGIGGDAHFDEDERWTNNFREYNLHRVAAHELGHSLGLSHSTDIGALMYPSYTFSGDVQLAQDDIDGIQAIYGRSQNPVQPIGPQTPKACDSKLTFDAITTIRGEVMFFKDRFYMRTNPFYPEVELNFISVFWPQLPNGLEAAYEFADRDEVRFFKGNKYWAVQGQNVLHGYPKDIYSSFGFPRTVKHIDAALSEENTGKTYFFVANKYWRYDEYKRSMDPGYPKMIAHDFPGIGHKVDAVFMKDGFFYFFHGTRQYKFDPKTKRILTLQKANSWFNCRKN

[3] = target: Matrix metalloproteinase-9 (Homo sapiens, UniProt P14780); assay: Inhibition of MMP-9 (unknown origin)
Sequence of Matrix metalloproteinase-9 (P14780 whole entry): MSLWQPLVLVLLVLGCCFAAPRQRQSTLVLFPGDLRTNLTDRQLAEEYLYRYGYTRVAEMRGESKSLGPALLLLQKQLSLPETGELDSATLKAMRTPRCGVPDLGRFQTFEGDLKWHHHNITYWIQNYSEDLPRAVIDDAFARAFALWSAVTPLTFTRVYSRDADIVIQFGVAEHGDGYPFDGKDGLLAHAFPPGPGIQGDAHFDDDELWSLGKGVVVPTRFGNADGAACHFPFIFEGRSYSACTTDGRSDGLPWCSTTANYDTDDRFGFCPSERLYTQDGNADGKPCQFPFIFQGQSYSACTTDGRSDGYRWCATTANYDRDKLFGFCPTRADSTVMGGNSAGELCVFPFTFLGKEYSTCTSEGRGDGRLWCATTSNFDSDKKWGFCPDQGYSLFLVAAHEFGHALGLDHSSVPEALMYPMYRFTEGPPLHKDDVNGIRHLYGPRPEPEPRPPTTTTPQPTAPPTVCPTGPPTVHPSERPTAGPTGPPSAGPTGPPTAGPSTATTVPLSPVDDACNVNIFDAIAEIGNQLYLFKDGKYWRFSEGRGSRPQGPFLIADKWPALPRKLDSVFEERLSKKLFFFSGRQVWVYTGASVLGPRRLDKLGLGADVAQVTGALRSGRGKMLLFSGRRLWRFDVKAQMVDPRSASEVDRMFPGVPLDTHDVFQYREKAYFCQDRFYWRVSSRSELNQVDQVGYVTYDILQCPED

[4] = target: 72 kDa type IV collagenase (Homo sapiens, UniProt P08253); assay: Inhibition of MMP-2 (unknown origin)
Sequence of 72 kDa type IV collagenase (P08253 whole entry): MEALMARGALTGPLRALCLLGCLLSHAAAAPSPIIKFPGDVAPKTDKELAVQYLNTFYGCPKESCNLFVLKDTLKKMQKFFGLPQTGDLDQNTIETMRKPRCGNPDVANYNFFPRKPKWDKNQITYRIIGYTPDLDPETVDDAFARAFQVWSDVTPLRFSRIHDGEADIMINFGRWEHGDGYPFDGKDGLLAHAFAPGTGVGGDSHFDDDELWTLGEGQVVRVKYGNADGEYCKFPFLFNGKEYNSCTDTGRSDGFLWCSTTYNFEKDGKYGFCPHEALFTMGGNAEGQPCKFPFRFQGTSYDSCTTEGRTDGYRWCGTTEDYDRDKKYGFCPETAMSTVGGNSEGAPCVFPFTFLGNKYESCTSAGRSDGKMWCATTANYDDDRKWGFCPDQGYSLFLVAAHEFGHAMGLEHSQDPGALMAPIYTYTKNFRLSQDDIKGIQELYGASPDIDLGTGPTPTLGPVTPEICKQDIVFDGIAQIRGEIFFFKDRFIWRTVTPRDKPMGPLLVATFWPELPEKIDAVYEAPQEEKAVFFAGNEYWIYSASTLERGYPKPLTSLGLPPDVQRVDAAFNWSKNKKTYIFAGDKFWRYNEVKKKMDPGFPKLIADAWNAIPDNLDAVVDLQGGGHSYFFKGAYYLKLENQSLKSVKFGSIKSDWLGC

HUVEC = assay: Antiproliferative activity against bFGF-treated HUVEC; format: functional, cell-based; settings: Homo sapiens
[5] = Selectivity index, ratio of IC50 for human KB3-1 cells to IC50 for bFGF-treated HUVEC; set-up: species or system KB 3-1
[6] = Half life in cynomolgus monkey at 3 mg/kg, iv; format: ADME, organism-based, Macaca fascicularis; set-up: dose 3 mg/kg, route intravenous; settings: in vivo
[7] = Inhibition of GGPTase-1 (unknown origin); set-up: species or system Homo sapiens
PC-3 [8] = assay: Induction of apoptosis in human PC3 cells at 10 uM after 24 hrs by propidium iodide/Hochest33342 staining-based flow cytometry (reference value: 0.05%); format: functional
PC-3 [9] = assay: Cytotoxicity against human PC3 cells assessed as growth inhibition after 48 hrs by MTT assay; format: functional, cell-based; settings: PC-3, 48 h
[10] = Cytotoxicity against human RPE1 cells assessed as cell viability after 24 to 72 hrs by MTT assay; format: cell-based, TERT-RPE1; settings: RPE-1
P388 = assay: Cytotoxicity against mouse P388 cells assessed as growth inhibition after 5 days by MTT assay; format: functional, cell-based; settings: P388, 120 h
Aromatase = target: T2, Aromatase (Homo sapiens, UniProt P11511); assay: Inhibition of aromatase (unknown origin)
T2 sequence (P11511 whole entry): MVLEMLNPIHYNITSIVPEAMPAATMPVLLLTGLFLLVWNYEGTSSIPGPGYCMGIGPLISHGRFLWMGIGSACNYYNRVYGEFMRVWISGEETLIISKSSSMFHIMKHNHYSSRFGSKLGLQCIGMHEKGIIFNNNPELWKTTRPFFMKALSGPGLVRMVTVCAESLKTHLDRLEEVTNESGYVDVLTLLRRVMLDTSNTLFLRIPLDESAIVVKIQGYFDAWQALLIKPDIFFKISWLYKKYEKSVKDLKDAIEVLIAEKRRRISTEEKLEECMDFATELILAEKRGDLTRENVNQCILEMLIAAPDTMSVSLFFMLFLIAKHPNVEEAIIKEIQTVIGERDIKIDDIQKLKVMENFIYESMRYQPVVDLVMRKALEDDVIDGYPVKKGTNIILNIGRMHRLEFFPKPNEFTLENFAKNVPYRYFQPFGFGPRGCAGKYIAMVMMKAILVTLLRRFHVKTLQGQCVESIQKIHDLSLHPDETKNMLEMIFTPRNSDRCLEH

- AUC [2]: 2 µM·h
- pIC50 (Interstitial collagenase): < 4.30
- pIC50 [3]: 8.26
- pIC50 [4]: 8.82
SMILES: CC1(C)OC[C@H](CC(CS(=O)(=O)c2ccc(Oc3ccc(OC(F)(F)F)cc3)cc2)N(O)C=O)O1 (stereo partly specified)

- AUC [2]: 53 µM·h
- half-life [6]: 16.8 h
SMILES: CC1(C)OC[C@H]([C@@H](CS(=O)(=O)c2ccc(Oc3ccc(OC(F)(F)F)cc3)cc2)N(O)C=O)O1

- pIC50 [7]: 5.43
SMILES: N#Cc1ccc(Cn2ccnc2)cc1Oc1ccccc1

- half-life [6]: 1.91 h
SMILES: O=CN(O)C(COCCO)CS(=O)(=O)c1ccc(Oc2ccc(OC(F)(F)F)cc2)cc1 (stereo unspecified)

- pIC50 (Aromatase): 5.28
SMILES: Cc1cc(O)cc2c1Oc1cc(O)cc(C)c1C(=O)O2

- pIC50 [7]: 8.24
SMILES: CC[C@@]1(c2cccc(Oc3cc(Cn4ccnc4)ccc3C#N)c2)CCCCN(C)C1=O

- pIC50 (Interstitial collagenase): < 4.30
SMILES: O=CN(O)C(CS(=O)(=O)c1ccc(Oc2ccc(OC(F)(F)F)cc2)cc1)C1CCC2(CC1)OCCO2 (stereo unspecified)

- AUC [2]: 16 µM·h
- pIC50 (Interstitial collagenase): < 4.30
- pIC50 [3]: 9.28
- pIC50 [4]: 9.28
SMILES: O=CN(O)C(Cc1ccc(C(=O)O)cc1)CS(=O)(=O)c1ccc(Oc2ccc(OC(F)(F)F)cc2)cc1 (stereo unspecified)

- AUC [2]: 3 µM·h
- half-life [6]: 1 h
SMILES: O=CN(O)C(CS(=O)(=O)c1ccc(Oc2ccc(OC(F)(F)F)cc2)cc1)[C@H](O)CO (stereo partly specified)

- pIC50 [7]: 8.29
SMILES: CCC1(c2cccc(Oc3cc(C(C)(N)c4cncn4C)ccc3C#N)c2)CCCCN(C)C1=O (mixture of isomers)

- pIC50 [7]: 8.00
SMILES: CCC1(c2cccc(Oc3cc(Cc4cncn4C)ccc3C#N)c2)CCCCN(C)C1=O (racemic)

- AUC [2]: 26 µM·h
- pIC50 (Interstitial collagenase): < 4.30
- pIC50 [3]: 9.49
- pIC50 [4]: 9.21
SMILES: O=CN(O)C(CS(=O)(=O)c1ccc(Oc2ccc(OC(F)(F)F)cc2)cc1)[C@H]1CCCO1 (stereo partly specified)

- pIC50 [7]: 4.82
SMILES: COc1cccc(Oc2cc(Cn3ccnc3)ccc2C#N)c1OC

Continued, molecule first:

SMILES: COc1cc([C@@H]2c3cc4c(cc3[C@@H](O[C@@H]3O[C@@H]5CO[C@@H](C)O[C@H]5[C@H](O)[C@H]3O)[C@H]3COC(=O)[C@H]23)OCO4)cc(OC)c1O [ETOPOSIDE]
- pIC50 [1]: 7.70
- pIC50 (HL-60): 6.21

SMILES: O=C1NCCc2cc(Br)c(O)c(c2)Oc2c(Br)cc(cc2Br)CCNC(=O)/C(=N/O)Cc2cc(Br)c(O)c(c2)Oc2c(Br)cc(cc2Br)C/C1=N\O [BASTADIN 6]
- pIC50 (HUVEC): 7.28
- Ratio IC50 [5]: 41

SMILES: Oc1ccc2c(c1)CCc1ccc(cc1)Oc1cc(ccc1O)CCc1ccc-2c(O)c1 [RICCARDI C]
- Activity (PC-3 [8]): 6.21%
- pIC50 (PC-3 [9]): 5.49
- pIC50 [10]: 4.30

SMILES: CC[C@@]1(c2cccc(Oc3cc([C@](C)(N)c4cncn4C)ccc3C#N)c2)CCCCN(C)C1=O
- pIC50 [7]: 8.44

SMILES: C[C@@H]1OC(C)(C)O[C@H]1C(CS(=O)(=O)c1ccc(Oc2ccc(OC(F)(F)F)cc2)cc1)N(O)C=O (stereo partly specified)
- AUC [2]: 21 µM·h
- pIC50 (Interstitial collagenase): < 4.30
- half-life [6]: 19.5 h
- pIC50 [4]: 8.72

SMILES: N[C@@H]1Cc2cc(Br)c(c(Br)c2)Oc2cc(ccc2O)C[C@H](N)C(=O)NCCc2cc(Br)c(c(Br)c2)Oc2cc(cc(Br)c2O)CCNC1=O
- pIC50 (HUVEC): 6.21
- Ratio IC50 [5]: 26.2

SMILES: Nc1cc2cc(c1O)Oc1c(Br)cc(cc1Br)CCNC(=O)/C(=N/O)Cc1cc(N)c(O)c(c1)Oc1c(Br)cc(cc1Br)C/C(=N/O)C(=O)NCC2
- pIC50 (HUVEC): 6.02
- Ratio IC50 [5]: 3.4

SMILES: COc1cc(C)cc(Oc2c(C)cc(OC)cc2OC)c1
- pIC50 [1]: 5.85
- pIC50 (HL-60): 5.66

SMILES: COc1ccc2cc1Oc1ccc(cc1)CCc1ccc(c(O)c1)Oc1cccc(c1)CC2
- Activity (PC-3 [8]): 9.4%
- pIC50 (PC-3 [9]): 5.10
- pIC50 [10]: 4.30

SMILES: COc1ccc(/C=C\c2cc(OC)c(OC)c(OC)c2)cc1O [COMBRETASTATIN A4]
- pIC50 (P388): 8.59

SMILES: O=C1NCCc2ccc(c(Br)c2)Oc2cc(cc(Br)c2O)CCNC(=O)/C(=N/O)Cc2cc(Br)c(O)c(c2)Oc2c(Br)cc(cc2Br)C/C1=N\O [BASTADIN 19]
- pIC50 (HUVEC): 6.92
- Ratio IC50 [5]: 19

SMILES: O=C1NCCc2cc(Br)c(O)c(c2)Oc2ccc(cc2Br)CCNC(=O)/C(=N\O)Cc2cc(Br)c(O)c(c2)Oc2c(Br)cc(cc2Br)C/C1=N/O [BASTADIN 5]
- pIC50 (HUVEC): 7.21
- Ratio IC50 [5]: 76

SMILES: CCC1(c2cccc(Oc3cc(Cn4ccnc4)ccc3C#N)c2)CCCCN(C)C1=O (racemic)
- pIC50 [7]: 8.15

SMILES: O=C1N/C=C/c2ccc(c(Br)c2)Oc2cc(cc(Br)c2O)CCNC(=O)/C(=N/O)Cc2ccc(c(Br)c2)Oc2cc(cc(Br)c2O)C/C1=N\O [BASTADIN 7]
- pIC50 (HUVEC): 7.27
- Ratio IC50 [5]: 56

SMILES: CCC1(c2cccc(Oc3cc(C(N)c4cncn4C)ccc3C#N)c2)CCCCN(C)C1=O (stereo unspecified)
- pIC50 [7]: 8.10

SMILES: O=C1NCCc2ccc(c(Br)c2)Oc2cc(ccc2O)CCNC(=O)/C(=N/O)Cc2cc(Br)c(O)c(c2)Oc2c(Br)cc(cc2Br)C/C1=N\O [BASTADIN 13]
- pIC50 (HUVEC): 6.28
- Ratio IC50 [5]: 14

SMILES: O=C1CCc2cc(Br)c(c(Br)c2)Oc2cc(ccc2O)CCC(=O)NCCc2cc(Br)c(c(Br)c2)Oc2cc(cc(Br)c2O)CCN1
- pIC50 (HUVEC): 5.40
- Ratio IC50 [5]: 1.6

SMILES: COc1ccc(O)c2c1Oc1cccc(c1)CCc1ccc(O)c(c1)Oc1ccc(cc1)CC2
- Activity (PC-3 [8]): 51.62%
- pIC50 (PC-3 [9]): 5.26
- pIC50 [10]: 4.30

SMILES: N#Cc1ccc(Cn2ccnc2)cc1Oc1ccc(Cl)cc1Cl
- pIC50 [7]: 6.55

SMILES: O=C1N/C=C/c2ccc(c(Br)c2)Oc2cc(cc(Br)c2O)CCNC(=O)/C(=N/O)Cc2cc(Br)c(c(Br)c2)Oc2cc(cc(Br)c2O)C/C1=N\O [BASTADIN 4]
- pIC50 (HUVEC): 7.28
- Ratio IC50 [5]: 38

SMILES: O=C1N/C=C/c2ccc(c(Br)c2)Oc2cc(ccc2O)CCNC(=O)/C(=N/O)Cc2cc(Br)c(c(Br)c2)Oc2cc(cc(Br)c2O)C/C1=N\O [BASTADIN 11]
- pIC50 (HUVEC): 7.28
- Ratio IC50 [5]: 38
